Measured values reported in ChEMBL document CHEMBL5346964, “Discovery of LNP1892: A Precision Calcimimetic for the Treatment of Secondary Hyperparathyroidism” (J Med Chem, 2023).

Legend:
[1] = biological target: T1, Extracellular calcium-sensing receptor (Homo sapiens, UniProt P41180); assay: Agonist activity at human CaSR expresssed in HEK293 cells in presence of glucose by Fluo4NW dye based FLIPR assay; type: functional, cell-based; conditions: read-out: EC50
T1 sequence (P41180 whole entry): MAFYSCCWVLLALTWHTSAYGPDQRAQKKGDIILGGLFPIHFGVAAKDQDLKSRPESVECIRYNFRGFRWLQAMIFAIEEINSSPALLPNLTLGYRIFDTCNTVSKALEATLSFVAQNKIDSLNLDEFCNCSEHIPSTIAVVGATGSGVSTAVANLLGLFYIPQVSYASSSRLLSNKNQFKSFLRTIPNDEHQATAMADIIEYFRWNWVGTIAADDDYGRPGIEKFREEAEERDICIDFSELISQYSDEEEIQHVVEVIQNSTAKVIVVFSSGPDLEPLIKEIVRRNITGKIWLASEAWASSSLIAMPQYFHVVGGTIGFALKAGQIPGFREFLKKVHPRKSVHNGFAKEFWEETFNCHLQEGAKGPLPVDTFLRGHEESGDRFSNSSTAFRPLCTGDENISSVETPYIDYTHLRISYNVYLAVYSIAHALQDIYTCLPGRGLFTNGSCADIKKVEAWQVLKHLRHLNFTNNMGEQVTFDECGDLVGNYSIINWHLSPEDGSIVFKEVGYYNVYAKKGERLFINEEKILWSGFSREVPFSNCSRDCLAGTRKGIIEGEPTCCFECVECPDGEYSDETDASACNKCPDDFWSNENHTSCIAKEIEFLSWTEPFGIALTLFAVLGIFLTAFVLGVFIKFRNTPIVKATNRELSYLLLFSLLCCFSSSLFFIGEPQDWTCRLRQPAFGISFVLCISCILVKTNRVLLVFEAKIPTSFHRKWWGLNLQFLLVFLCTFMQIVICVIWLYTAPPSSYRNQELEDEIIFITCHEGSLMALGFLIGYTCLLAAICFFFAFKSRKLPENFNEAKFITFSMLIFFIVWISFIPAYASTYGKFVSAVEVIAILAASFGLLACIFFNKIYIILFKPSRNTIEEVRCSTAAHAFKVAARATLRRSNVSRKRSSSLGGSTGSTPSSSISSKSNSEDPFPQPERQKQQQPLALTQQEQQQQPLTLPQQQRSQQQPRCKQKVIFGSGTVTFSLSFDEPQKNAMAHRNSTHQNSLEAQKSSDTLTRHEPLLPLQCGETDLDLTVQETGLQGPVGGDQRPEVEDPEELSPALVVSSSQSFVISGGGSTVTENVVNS

[2] = biological target: CYP2D6 (Homo sapiens, UniProt P10635); assay: Inhibition of CYP2D6 in human liver microsomes at 1 uM preincubated for 5 mins followed by NADPH addition by LC-MS/MS analysis relative to control; type: ADME, Microsome
Sequence of CYP2D6 (P10635 whole entry): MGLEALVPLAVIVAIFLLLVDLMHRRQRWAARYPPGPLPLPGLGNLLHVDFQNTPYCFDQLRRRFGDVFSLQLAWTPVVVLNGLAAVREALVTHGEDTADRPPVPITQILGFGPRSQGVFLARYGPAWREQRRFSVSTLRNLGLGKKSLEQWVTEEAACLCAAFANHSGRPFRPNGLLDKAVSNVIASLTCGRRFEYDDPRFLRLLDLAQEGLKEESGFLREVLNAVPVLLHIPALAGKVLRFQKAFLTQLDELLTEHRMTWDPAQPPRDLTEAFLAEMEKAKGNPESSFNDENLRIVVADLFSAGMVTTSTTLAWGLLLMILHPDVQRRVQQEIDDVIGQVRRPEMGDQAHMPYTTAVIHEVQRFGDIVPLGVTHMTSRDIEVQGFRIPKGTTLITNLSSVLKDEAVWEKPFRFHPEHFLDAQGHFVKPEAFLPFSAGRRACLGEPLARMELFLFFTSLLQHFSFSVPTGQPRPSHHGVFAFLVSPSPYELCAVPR

[3] = Cmax in Sprague-Dawley rat at 10 mg/kg, po administered as solution measured upto 24 hrs by LC-MS/MS analysis; type: ADME, organism-based; set-up: dose 10 mg/kg, time < 24 hrs, route po; conditions: in vivo
[4] = system: Rattus norvegicus; assay: Acute effect on parathyroid hormone in overnight fasted adenine diet-induced chronic kidney disease Wistar rat model assessed as reduction in plasma PTH level at 10 mg/kg, po measured after 2 hrs of post treatment by sandwich ELISA analysis; type: functional; set-up: scale not given: the % may be the effect or the level left
[5] = AUC(0 to 24 hrs) in Sprague-Dawley rat at 300 mg/kg; type: ADME, organism-based; set-up: dose 300 mg/kg; conditions: in vivo
[6] = Metabolic stability in human liver cytosol measured upto 60 mins by LC-MS/MS method; type: ADME, subcellular; conditions: read-out: Stability
[7] = Stability in monkey plasma measured up to 4 hrs by LC-MS/MS method; type: ADME, cell-free, Macaca mulatta; conditions: rhesus monkey, read-out: Stability
[8] = Protein binding in rat plasma incubated for 16 hrs under shaking condition by rapid equilibrium dialysis based LC-MS/MS method; type: ADME, cell-free; conditions: read-out: PPB
[9] = Protein binding in dog plasma incubated for 16 hrs under shaking condition by rapid equilibrium dialysis based LC-MS/MS method; type: ADME, cell-free, Canis lupus familiaris; conditions: read-out: PPB
[10] = Stability in human liver microsomes assessed as parent compound remaining measured after 60 mins in presence of NADPH by LC-MS/MS analysis; type: ADME, Microsome; conditions: read-out: Stability
[11] = biological target: T2, Cytochrome P450 2B6 (Homo sapiens, UniProt P20813); assay: Inhibition of CYP2B6 in human liver microsomes preincubated for 5 mins followed by NADPH addition by LC-MS/MS analysis; type: ADME, Microsome
T2 sequence (P20813 whole entry): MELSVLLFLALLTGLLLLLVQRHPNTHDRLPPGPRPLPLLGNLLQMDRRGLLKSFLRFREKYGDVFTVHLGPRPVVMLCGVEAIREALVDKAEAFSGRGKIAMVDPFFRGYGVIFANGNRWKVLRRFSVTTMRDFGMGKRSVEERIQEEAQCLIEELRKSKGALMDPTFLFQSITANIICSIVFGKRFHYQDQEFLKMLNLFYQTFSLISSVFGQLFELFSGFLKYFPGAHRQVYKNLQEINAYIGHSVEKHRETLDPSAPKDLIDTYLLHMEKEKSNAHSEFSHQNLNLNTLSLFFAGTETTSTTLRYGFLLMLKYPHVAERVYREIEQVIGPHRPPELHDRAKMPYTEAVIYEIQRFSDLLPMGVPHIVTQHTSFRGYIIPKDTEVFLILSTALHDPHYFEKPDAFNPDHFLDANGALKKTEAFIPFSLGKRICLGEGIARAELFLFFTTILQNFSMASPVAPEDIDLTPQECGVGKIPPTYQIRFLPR

[12] = Apparent permeability across apical to basolateral side in human Caco-2 cells at 5 uM measured after 30 to 120 mins by LC-MS/MS analysis; type: ADME, cell-based; conditions: time 30-120 min
[13] = Efflux ratio of apparent permeability across basolateral to apical over apical to basolateral membrane in human Caco-2 cells at 5 uM measured after 120 mins by LC-MS/MS analysis; type: ADME, cell-based
[14] = Chemical stability of the compound in FaSSIF measured after 0.5 to 4 hrs; type: physicochemical; conditions: simulated gi fluid; time 0.5-4 hrs
[15] = Chemical stability of the compound in SGF measured after 0.5 to 4 hrs; type: physicochemical; conditions: simulated gi fluid; time 0.5-4 hrs
[16] = Plasma clearance in BALB/c mouse at 1 mg/kg, iv measured upto 24 hrs by LC/MS-MS analysis; type: ADME, organism-based
[17] = Volume of distribution at steady state in BALB/c mouse at 1 mg/kg, iv measured upto 24 hrs by LC/MS-MS analysis; type: ADME, organism-based; conditions: in vivo, read-out: Vdss
[18] = Tmax in Sprague-Dawley rat at 10 mg/kg, po measured upto 24 hrs by LC/MS-MS analysis; type: ADME, organism-based; conditions: in vivo
[19] = Drug excretion in BALB/c mouse assessed as drug recovery in urine at 10 mg/kg, po; type: ADME, organism-based; conditions: read-out: Drug recovery
[20] = Drug excretion in BALB/c mouse assessed as drug recovery in feces at 10 mg/kg, po; type: ADME, organism-based; conditions: faeces, read-out: Drug recovery
[21] = Ratio of drug concentration in brain to plasma in Sprague-Dawley rat at 10 mg/kg, po measured upto 24 hrs by LC-MS/MS analysis; type: ADME, organism-based; conditions: read-out: BPR
[22] = Cmax in rat at 50 mg/kg per day, po via gavage administered for 2 weeks; type: ADME, organism-based; set-up: dose 50 mg/kg, time 2 weeks, route po; conditions: in vivo
[23] = Cmax in human at 10 mg/kg, po administered as single dose; type: ADME, organism-based; set-up: dose 10 mg/kg, route po; conditions: in vivo
[24] = Plasma protein binding in human; type: ADME; conditions: read-out: PPB

## Cc1ccc([C@@H]2C[C@H](CN[C@H](C)c3cccc4ccccc34)Oc3ccccc32)cc1C(=O)O.Cl
[1]
  EC50: 0.0064 µM
[2]
  inhibition at 1 µM: 4%
[3]
  Cmax: 14 µM
[4]
  Activity: 89%
[5]
  AUC(0-t): 1020 µM·h
[6]
  remaining at 1 h: > 80%
[7]
  remaining at 4 h: > 80%
[8]
  fraction unbound at 16 h: < 0.01
[9]
  fraction unbound at 16 h: < 0.01
[10]
  remaining at 1 h: ~30%
[11]
  IC50: 64 µM
[12]
  Papp A→B at 5 µM: 20 ×10⁻⁶ cm/s
[13]
  efflux ratio at 2 h, 5 µM: 0.3
[14]
  Stability: Stable
[15]
  Stability: Stable
[16]
  clearance: 2.6 mL/min/kg
[17]
  Vd: 0.6 L/kg
[18]
  Tmax: 36 min
[19]
  dose excreted: < 1%
[20]
  dose excreted: 23%
[21]
  Kp at 24 h: 0.2
[22]
  Cmax: 7170 ng/mL
[23]
  Cmax: 202 ng/mL
[24]
  fraction unbound: < 0.01
